{
  "source": "patent US20150355179A1",
  "about": "“CDKACT BIOSENSORS-FLUORESCENT POLYPEPTIDE TO PROBE THE ACTIVITY OF CDK/CYCLIN KINASES IN VITRO, IN CELLULO AND IN VIVO” (CENTRE NATIONAL DE LA RECHERCHE SCIENTIFIQUE (CNRS), priority 2012, published 2015)",
  "key": {"[1]": {"tested_on": "CDK/Cyclin kinase activity in HeLa cell extracts", "experiment": "Fluorescence kinase assay of CDKACTH1 in HeLa cell extracts", "format": "biochemical", "conditions": "20 ug HeLa cell extracts, increasing concentrations of inhibitor", "procedure": "(§1) Fluorescence kinase assays were performed in 96-well plates in a thermostated chamber (Polarstar BMG) at 30° C. in 200 ul phosphate buffer saline, pH 7.2, 150 mM NaCl, in the presence of 5 mM MgCl2, 0.5 mM ATP, except when stated otherwise. The fluorescence of Cy3-labelled CDKACTH1 with recombinant CDK/Cyclin complexes or with cell extracts was monitored over time. Changes in Cy3 fluorescence emission were recorded at 590 nm following excitation at 544 nm. In all experiments, the fluorescence of CDKACTH1-Cy3 alone was substracted from all other values. Data analysis and curve fitting were performed using the GraFit Software (Erathicus Ltd).\nCell culture media, serum and antibiotics were purchased from Invitrogen. HeLa, HS68, A549, MCF-7 and U2OS cells were cultured in DMEM+Glutamax supplemented with 10% FCS, 1 mM penicillin and 1 mM streptomycin at 37° C. in an atmosphere containing 5% CO2. HT2-19 cells, provided by Dr. A. Porter, were cultured in DMEM+NEAA, antibiotics, sodium pyruvate and glutamine, and supplemented with 10% FCS29. Cell extracts were prepared in TBS lysis buffer containing 50 mM TrisHCl, pH 7.4, 150 mM NaCl, 0.1% NP40, 0.1% Deoxycholate, 2 mM EDTA, 1 mM PMSF, Complete™ protease inhibitors (Roche), and normalized following spectrophometric dosage at 280 nm. Phosphatase inhibitors: 50 mM NaF, 40 mM β-Glycero-phosphate, 1 mM Na3VO4.\nKinase assays were performed in the same conditions as above. […] As shown in FIG. 4A-C, incubation of 20 ug HeLa cell extracts with CDKACTH1 yielded a very similar profile to that obtained with recombinant CDK/Cyclins, implying that these kinases were indeed phosphorylating the substrate sequence of the biosensor. […] Since phosphorylation events are counterbalanced by phosphatases in mammalian cell extracts, we asked whether the response measured would be further improved if phosphatase activity was blocked."}, "A375 rvluc2 cells": {"tested_on": "A375 rvluc2 cells", "experiment": "A375 xenograft tumour growth in NMRI nude mice", "format": "in vivo", "conditions": "Roscovitine IP 50 mg/kg/day for 7 days"}, "CDK4/Cyclin D": {"biological_target": "T1, CDK4/Cyclin D (Homo sapiens, UniProt P11802)", "T1 construct": "made in house; host or cells: E. coli", "T1 sequence (P11802 whole entry, species assumed)": "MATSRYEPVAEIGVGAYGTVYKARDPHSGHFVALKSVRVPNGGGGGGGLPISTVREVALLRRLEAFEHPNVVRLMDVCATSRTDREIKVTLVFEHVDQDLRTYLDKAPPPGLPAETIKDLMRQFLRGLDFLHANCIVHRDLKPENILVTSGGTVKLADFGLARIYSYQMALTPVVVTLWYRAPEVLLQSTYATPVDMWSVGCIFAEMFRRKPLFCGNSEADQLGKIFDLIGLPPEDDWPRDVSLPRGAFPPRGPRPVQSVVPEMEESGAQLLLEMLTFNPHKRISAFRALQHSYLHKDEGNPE", "T1 sequence (P24385 whole entry partner, species assumed)": "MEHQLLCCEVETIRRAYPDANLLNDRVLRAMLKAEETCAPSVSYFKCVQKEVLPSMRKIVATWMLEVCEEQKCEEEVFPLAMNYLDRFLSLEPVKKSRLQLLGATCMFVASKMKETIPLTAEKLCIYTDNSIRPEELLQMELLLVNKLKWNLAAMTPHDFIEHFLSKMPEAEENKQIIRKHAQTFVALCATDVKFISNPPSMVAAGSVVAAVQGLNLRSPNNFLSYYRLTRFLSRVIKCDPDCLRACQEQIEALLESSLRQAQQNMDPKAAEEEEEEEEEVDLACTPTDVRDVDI", "experiment": "Real-time fluorescence kinase assay with recombinant CDK4/Cyclin D", "format": "biochemical", "conditions": "20 uM inhibitor; 75 nM CDK4/CyclinD, 25 nM CDKACTH1-Cy3", "procedure": "as §1\nTo address the issue of specificity, we asked whether other kinases could phosphorylate and thereby affect the fluorescence of CDKACTH1. We first examined CDK1/Cyclin B and CDK4/Cyclin D (FIGS. 3A and B)."}, "CDK2/Cyclin A": {"biological_target": "T2, CDK2/Cyclin A (Homo sapiens, UniProt P24941)", "T2 construct": "made in house; host or cells: E. coli", "experiment": "Real-time fluorescence kinase assay with recombinant active CDK2/Cyclin A", "format": "biochemical", "procedure": "(§2) In order to characterize CDKACT-H1 biosensor in vitro, we first asked whether it could be used to monitor recombinant kinase activity in a real-time assay.\nas §1, §2\nIn vitro characterization was performed as described in Example 2. […] Assays were performed at 30° C. for 1600s. Fluorescence emission of Cy5 was measured at 675 nm following excitation at 645 nm on Polarstar™ fluorimeter.\nAssays were performed at 30° C. for 1600s. Fluorescence emission of Cy3 was measured at 590 nm following excitation at 544 nm on Polarstar™ fluorimeter."}},
  "data": [
    {"compound": "CC(=O)c1c(C)c2cnc(Nc3ccc(N4CCNCC4)cn3)nc2n(C2CCCC2)c1=O", "note": "[PD-0332991]", "values": [
      {"measurement": "share of CDKACTH1 phosphorylating activity attributed to the kinases blocked by the inhibitor", "setting": "[1]", "value": "partial activity"}
    ]},
    {"compound": "O=C1NC(=NCc2cccs2)S/C1=C\\c1ccc2ncccc2c1", "note": "[RO3306]", "values": [
      {"measurement": "share of CDKACTH1 phosphorylating activity attributed to the kinases blocked by the inhibitor", "setting": "[1]", "value": "larger part of activities"}
    ]},
    {"compound": "CC[C@H](CO)Nc1nc(NCc2ccccc2)c2ncn(C(C)C)c2n1", "note": "[roscovitine]", "values": [
      {"measurement": "size of tumours compared to vehicle", "setting": "A375 rvluc2 cells; versus DMSO vehicle", "value": 55.6, "unit": "%"},
      {"measurement": "size of tumours compared to control", "setting": "A375 rvluc2 cells; versus non-treated control", "value": 53.8, "unit": "%"},
      {"measurement": "share of CDKACTH1 phosphorylating activity attributed to the kinases blocked by the inhibitor", "setting": "[1]", "value": "larger part of activities"},
      {"measurement": "effect of inhibitor on the CDKACTH1 fluorescence signal", "setting": "CDK4/Cyclin D", "value": "no effect"}
    ]},
    {"compound": "CDKACTWWH1: peptide biosensor SEQ ID No 20: Pin1 WW phosphobinding domain, linker SEQ ID No 14, histone H1 substrate domain; synthesized, dye-labelled (KLPPGWEKRMSRSSGRVYYFNHITNASQWERPSGPGAGGTGGLPGGGGCSTPKKAKKL; Cy5 or Cy3 dye label; Polypeptide comprising: the WW domain of PIN1 wherein all Cystein residues are replaced by a Serine residue, a linker and the CDK substrate domain from histone H1)", "values": [
      {"measurement": "fluorescence enhancement compared with CDKACTH1", "setting": "CDK2/Cyclin A; 25 nM Cy3-labelled sensors, 25 nM active CDK2/Cyclin A3", "value": "greater changes in fluorescence enhancement"},
      {"measurement": "fluorescence response to CDK2/CyclinA activity", "setting": "CDK2/Cyclin A; 25 nM Cy5-CDKACT-WWH1, 25 nM active CDK2/Cyclin A3, 5 mM ATP, 20 mM MgCl2", "value": "significant changes in fluorescence enhancement"}
    ]}
  ]
}
